Like-named read-outs stand apart in the source and are kept apart here.
Columns and labels:
Septoria tritici = settings: 0.004 ppm; 405 nm, 7 days after inoculation, 18° C.
[1] = system: Sugar beet seeds (Beretta); experiment: Safener effect of dimethomorph: germination of pelleted sugar beet seeds under cold stress; assay type: in vivo; settings: 30 g a.i./U seed pelleting; % of sown seeds; 6 days 13° C. then 5° C.; all seeds also treated with 6 g/U thiram and 14.7 g/U hymexazole
Protocol: Sugar beet seeds (Beretta) were pelleted either with pyraclostrobin alone or with pyraclostrobin in combination with dimethomorph. After sowing, the seeds (200 seeds per treatment, 4 repetitions) were grown for 6 days at 13° C. and then exposed to 5° C. for 7 days. Cultivation was then continued at 20° C. During the whole cultivation period the soil was kept at 20% humidity. 7 and 8 days after sowing (DAS) germination was assessed as % of the number of sown seeds.

Phytophthora infestans = assay type: cell-based; settings: 405 nm, 7 days after inoculation, 18° C.

## COC(=O)N(OC)c1ccccc1COc1ccn(-c2ccc(Cl)cc2)n1 [Pyraclostrobin]
Septoria tritici
  Observed efficacy: 49%
[1]
  Germination 7 DAS: 16%
  Germination 8 DAS: 27%

## C/C(=N\C#N)N(C)Cc1ccc(Cl)nc1 [Acetamiprid]
Phytophthora infestans; 0.25 ppm
  Observed efficacy: 0%

## CC(C)C1CCC(Cc2ccc(Cl)cc2)C1(O)Cn1cncn1 (stereo not drawn) [Ipconazol]
Phytophthora infestans; 0.063 ppm
  Observed efficacy: 2%

## COc1ccc(C(=CC(=O)N2CCOCC2)c2ccc(Cl)cc2)cc1OC [Dimethomorph]
Phytophthora infestans; 0.25 ppm
  Observed efficacy: 51%
